Test results published in ChEMBL document CHEMBL1201862, “PubChem BioAssay data set” (2004).
Active and inactive are the calls of the source. Cut-off read from the data, not from the text of the source, for most assays here: actives have a measured EC50 and inactives only a lower limit.

Assays:
Nonstructural protein 1 = Nonstructural protein 1 (Influenza A virus, UniProt Q194T2); type: functional, Influenza A virus (A/California/07/2009(H1N1))
[1] = target: Heat shock protein HSP 90-alpha (Homo sapiens, UniProt P07900); type: functional, organism-based
Genome polyprotein = Genome polyprotein (dengue virus type 2, UniProt P29990); assay: Dengue-2 NS5 methyltransferase inhibitors, primary screen, biochemical, confirmation dose response (AID 588689); type: functional
Chain of Genome polyprotein (P29990 2492-3391 limits assumed): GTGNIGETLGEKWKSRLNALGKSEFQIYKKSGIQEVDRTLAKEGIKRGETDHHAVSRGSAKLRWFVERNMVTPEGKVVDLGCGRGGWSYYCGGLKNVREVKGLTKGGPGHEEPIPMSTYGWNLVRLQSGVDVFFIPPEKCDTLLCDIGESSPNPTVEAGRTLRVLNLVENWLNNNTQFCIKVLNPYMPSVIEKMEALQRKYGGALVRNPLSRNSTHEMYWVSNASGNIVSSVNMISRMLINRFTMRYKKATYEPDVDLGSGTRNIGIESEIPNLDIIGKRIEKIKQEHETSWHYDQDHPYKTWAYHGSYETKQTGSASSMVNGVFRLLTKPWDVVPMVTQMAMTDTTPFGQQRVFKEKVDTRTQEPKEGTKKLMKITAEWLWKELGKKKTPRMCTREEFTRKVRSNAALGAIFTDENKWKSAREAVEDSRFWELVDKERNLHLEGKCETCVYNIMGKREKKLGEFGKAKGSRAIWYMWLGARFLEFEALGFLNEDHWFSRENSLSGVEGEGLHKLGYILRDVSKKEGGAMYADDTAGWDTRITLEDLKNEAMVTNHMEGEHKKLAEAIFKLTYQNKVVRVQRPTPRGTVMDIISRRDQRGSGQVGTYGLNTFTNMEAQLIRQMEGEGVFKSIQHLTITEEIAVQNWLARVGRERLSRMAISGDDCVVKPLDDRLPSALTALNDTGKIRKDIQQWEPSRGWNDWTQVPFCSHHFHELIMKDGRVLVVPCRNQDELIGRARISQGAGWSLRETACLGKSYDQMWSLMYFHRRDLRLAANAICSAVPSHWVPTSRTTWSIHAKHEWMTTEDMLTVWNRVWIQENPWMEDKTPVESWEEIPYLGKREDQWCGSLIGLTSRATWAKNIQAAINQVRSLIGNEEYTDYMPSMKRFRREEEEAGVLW

[2] = target: Induced myeloid leukemia cell differentiation protein Mcl-1 (Homo sapiens, UniProt Q07820); type: functional
Chain of Induced myeloid leukemia cell differentiation protein Mcl-1 (Q07820 whole entry): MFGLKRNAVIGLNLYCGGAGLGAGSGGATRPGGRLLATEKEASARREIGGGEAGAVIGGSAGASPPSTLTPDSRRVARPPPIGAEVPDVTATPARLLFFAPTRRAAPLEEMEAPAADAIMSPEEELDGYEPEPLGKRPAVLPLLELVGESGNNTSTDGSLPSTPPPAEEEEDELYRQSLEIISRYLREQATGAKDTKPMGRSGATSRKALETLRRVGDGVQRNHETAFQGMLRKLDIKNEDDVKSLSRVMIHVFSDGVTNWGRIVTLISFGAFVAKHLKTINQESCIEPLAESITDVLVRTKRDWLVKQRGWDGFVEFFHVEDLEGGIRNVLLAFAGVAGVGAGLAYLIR

[3] = target: T1, Histone-lysine N-methyltransferase NSD2 (Homo sapiens, UniProt O96028); type: biochemical
T1 sequence (O96028 whole entry): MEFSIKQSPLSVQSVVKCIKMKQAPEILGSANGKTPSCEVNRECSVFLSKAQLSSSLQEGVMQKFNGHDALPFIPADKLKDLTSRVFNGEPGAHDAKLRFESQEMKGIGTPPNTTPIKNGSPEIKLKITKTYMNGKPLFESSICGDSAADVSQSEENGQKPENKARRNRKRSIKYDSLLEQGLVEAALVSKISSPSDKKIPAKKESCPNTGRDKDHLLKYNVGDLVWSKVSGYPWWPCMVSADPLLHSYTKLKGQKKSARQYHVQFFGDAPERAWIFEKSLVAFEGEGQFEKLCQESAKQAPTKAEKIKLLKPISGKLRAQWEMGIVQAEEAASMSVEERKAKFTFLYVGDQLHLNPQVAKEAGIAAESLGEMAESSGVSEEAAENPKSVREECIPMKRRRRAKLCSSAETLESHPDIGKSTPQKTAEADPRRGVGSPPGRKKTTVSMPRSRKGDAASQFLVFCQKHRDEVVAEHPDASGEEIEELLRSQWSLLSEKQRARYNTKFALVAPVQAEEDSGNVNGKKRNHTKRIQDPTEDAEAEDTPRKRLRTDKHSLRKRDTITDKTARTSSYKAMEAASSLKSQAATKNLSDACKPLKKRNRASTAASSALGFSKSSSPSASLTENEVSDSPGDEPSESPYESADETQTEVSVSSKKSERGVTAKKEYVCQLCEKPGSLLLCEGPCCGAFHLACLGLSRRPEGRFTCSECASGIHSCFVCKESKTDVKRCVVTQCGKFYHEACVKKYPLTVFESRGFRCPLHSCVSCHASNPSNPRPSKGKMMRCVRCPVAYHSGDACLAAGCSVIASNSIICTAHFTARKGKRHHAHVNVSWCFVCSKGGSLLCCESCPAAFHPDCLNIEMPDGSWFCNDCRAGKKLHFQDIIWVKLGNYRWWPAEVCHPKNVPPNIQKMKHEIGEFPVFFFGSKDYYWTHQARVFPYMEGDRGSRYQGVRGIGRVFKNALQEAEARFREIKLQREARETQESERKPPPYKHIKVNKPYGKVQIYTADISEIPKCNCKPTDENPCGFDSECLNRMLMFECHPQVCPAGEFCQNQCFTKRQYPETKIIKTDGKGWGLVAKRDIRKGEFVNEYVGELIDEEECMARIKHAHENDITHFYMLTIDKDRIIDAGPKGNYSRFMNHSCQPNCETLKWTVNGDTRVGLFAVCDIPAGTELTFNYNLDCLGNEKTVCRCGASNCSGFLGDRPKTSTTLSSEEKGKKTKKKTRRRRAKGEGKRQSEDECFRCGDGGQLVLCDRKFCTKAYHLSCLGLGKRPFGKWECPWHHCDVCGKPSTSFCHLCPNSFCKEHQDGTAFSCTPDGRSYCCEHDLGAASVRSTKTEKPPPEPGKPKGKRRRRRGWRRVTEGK

[4] = target: T2, RNA-binding protein pos-1 (Caenorhabditis elegans, UniProt G5EF15); assay: inhibitors of POS-1/mex-3 RNA binding, dose response, biochemical, fluorescence polarization (AID 1964);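 note: purified POS-1 fused to maltose binding protein made in E. coli; potency of compounds blocking POS-1 binding to fluorescent RNA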
T2 sequence (G5EF15 whole entry): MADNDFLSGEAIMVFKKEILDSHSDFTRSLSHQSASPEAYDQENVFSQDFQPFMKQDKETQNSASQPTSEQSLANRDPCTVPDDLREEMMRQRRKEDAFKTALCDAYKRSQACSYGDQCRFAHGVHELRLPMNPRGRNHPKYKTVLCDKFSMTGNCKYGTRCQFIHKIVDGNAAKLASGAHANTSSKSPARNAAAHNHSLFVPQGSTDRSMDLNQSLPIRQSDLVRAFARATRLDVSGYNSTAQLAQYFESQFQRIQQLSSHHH

Leucine aminopeptidase = target: T3, Leucine aminopeptidase (Plasmodium falciparum 3D7, UniProt Q8IL11); assay: P. falciparum M17LAP inhibitors, primary screen, biochemical, fluorogenic H-Leu-NHMec substrate, 1536-well (AID 1619); type: functional
T3 sequence (Q8IL11 whole entry): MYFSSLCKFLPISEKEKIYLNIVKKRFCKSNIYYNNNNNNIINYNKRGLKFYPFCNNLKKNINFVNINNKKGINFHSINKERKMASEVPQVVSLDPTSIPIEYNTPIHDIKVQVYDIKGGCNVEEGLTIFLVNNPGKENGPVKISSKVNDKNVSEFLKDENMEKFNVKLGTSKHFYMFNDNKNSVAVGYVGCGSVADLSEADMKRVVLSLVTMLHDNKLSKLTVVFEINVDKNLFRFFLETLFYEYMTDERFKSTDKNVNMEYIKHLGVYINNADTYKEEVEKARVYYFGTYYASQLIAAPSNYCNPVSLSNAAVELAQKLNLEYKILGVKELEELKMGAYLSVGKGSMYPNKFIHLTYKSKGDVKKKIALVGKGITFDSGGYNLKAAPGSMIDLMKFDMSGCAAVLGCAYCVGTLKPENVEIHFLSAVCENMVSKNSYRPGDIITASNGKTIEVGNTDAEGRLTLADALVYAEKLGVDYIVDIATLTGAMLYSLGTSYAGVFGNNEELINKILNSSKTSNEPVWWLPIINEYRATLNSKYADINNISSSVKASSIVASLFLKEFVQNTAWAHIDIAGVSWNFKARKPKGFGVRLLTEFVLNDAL

[5] = target: T4, Carboxy-terminal domain RNA polymerase II polypeptide A small phosphatase 1 (Homo sapiens, UniProt Q9GZU7); assay: inhibitors of CTDSP1, concentration-response testing, biochemical assay, absorbance-based, actives from ultra-high-throughput screening (AID 540297); type: functional
T4 sequence (Q9GZU7 whole entry): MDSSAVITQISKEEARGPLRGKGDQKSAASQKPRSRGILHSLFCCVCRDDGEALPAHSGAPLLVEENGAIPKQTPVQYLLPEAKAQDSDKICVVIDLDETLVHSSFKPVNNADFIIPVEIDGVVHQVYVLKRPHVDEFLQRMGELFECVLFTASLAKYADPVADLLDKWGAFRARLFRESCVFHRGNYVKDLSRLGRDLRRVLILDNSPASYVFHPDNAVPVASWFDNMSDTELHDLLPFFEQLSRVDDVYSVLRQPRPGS

[6] = target: T5, Zinc finger protein mex-5 (Caenorhabditis elegans, UniProt Q9XUB2); assay: MEX-5/TCR-2 RNA interaction inhibitors, dose response, biochemical, C. elegans, fluorescence polarization (AID 1960)
T5 sequence (Q9XUB2 whole entry): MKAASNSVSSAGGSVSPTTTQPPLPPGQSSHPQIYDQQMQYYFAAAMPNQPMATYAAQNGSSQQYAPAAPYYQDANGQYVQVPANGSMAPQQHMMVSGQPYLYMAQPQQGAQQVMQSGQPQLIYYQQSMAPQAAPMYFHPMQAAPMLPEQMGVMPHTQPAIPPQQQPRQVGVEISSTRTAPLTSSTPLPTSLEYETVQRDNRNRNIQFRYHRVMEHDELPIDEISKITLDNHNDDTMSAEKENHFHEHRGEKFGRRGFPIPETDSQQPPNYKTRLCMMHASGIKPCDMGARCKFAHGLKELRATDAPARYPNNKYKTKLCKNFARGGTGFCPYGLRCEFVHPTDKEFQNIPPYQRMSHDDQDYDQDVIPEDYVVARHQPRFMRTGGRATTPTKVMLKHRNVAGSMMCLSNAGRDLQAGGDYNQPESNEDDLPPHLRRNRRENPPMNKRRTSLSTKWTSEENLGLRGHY

Streptococcus = assay: Group A Streptococcus viability loss, dose response, counter-screen for streptokinase expression inhibitor project, luminescence, BacTiterGlo (AID 1915); type: functional, organism-based;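 note: potency for reduction of bacterial viability or growth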
[7] = inhibitors of intracellular T. cruzi replication, confirmation, NIH3T3 host cells, beta-gal luminescence (AID 2044); type: functional, cell-based;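 note: intracellular parasites grown in NIH/3T3 mouse fibroblasts as host cells; luminescent beta-galactosidase reporter signal from transgenic T. cruzi replicating inside host cells; inhibitors lower the luminescence signal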
[8] = inhibitors of SNCA 5'UTR-driven reporter translation, confirmation, H4 neuroglioma cells, luminescence (AID 1988); type: functional, cell-based
[9] = cytotoxicity toward NIH3T3 fibroblasts, dose response, counter-screen, cell-based, ATP luminescence, mouse fibroblasts (AID 2010); type: functional;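 note: cells exposed to compound for about 90 hours before reading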
[10] = Luminescence Cell-Based Dose Response HTS to Identify Inhibitors of 5'UTR Stem-Loop Driven Prion Protein mRNA Translation in H4 Neuroglioblastoma Cells. [Related pubchem assays: 1827 (Project Summary), 1813 (Primary HTS)]; type: functional
[11] = test system: Streptococcus sp. 'group A'; assay: growth inhibition of control SK(-) GAS strain, dose response, counter-screen for streptokinase expression inhibitor project, luminescence, kanamycin, BacTiterGlo, confirmation (AID 1900); type: functional, organism-based
[12] = inhibitors of firefly luciferase expression or activity, dose response, H4 neuroglioma cells, luminescence (AID 1990); type: functional, cell-based
[13] = cytotoxicity in HPDE-C7 cells, cell-based, fluorescence, HTS (AID 430); type: functional; details: Homo sapiens
[14] = cytotoxicity in KRAS-transformed pancreatic duct cells, primary screen, cell-based, fluorescence, HTS (AID 431); type: functional; details: Homo sapiens;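 note: cell line used: HPDE-C7K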
INS1 = assay: beta cell apoptosis inhibitors, cytokine rescue, dose response, luminescence, retest (AID 449756); type: functional, cell-based; details: Rattus norvegicus;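 note: cell death triggered by IL-1 beta plus TNF-alpha plus IFN-gamma mixture; protective hits raise ATP signal compared with cytokine alone wells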
[15] = microbe, parasite or virus in culture; type: functional; details: Mycobacterium tuberculosis
[16] = growth suppression of beta-catenin-knockout colon cells, dose response, cell-based, HCT116, human colon tumor (AID 1045); type: functional;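 note: HCT116 colon tumor cells with beta catenin knocked out; cells exposed to compound for 60 hours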
[17] = growth suppression of PTEN-null colon cells, dose response, cell-based, HCT116 PTEN knockout (AID 1047); type: functional;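 note: HCT116 colon tumor cells with PTEN knocked out; cells exposed to compound for 60 hours before readout; potency for loss of cell viability measured by luminescence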
[18] = target: Luciferin 4-monooxygenase (Photinus pyralis, UniProt P08659); assay: firefly luciferase enzyme inhibitors, dose response, biochemical, luminescence (AID 1891)
Chain of Luciferin 4-monooxygenase (P08659 whole entry): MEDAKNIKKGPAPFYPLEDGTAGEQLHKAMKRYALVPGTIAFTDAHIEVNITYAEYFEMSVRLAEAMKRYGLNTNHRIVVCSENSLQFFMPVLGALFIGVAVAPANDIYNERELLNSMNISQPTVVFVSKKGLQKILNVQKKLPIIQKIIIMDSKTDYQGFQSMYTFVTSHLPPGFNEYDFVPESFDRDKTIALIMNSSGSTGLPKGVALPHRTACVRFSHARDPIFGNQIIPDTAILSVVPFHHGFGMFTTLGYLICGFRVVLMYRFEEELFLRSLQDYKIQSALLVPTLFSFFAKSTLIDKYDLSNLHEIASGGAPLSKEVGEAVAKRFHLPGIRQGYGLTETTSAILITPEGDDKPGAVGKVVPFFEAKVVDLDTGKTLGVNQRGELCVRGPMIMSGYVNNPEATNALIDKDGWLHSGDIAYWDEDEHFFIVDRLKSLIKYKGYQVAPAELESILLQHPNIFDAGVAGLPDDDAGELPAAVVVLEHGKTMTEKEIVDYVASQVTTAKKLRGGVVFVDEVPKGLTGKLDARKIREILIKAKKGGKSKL

[19] = Luminescence Cell-Based Dose Confirmation HTS to Identify Inhibitors of Platelet Dense Granule Release. [Related pubchem assays: 1663 (Primary HTS), 1678 (Summary of Project)]; type: functional

Chain of Nonstructural protein 1 (Q194T2 whole entry): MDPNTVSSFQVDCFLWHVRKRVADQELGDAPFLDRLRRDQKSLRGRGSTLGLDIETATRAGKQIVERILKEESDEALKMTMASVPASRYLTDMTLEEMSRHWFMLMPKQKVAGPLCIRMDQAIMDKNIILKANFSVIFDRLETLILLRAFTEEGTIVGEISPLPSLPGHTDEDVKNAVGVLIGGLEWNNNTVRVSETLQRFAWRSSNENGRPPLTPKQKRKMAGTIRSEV

With `Cc1cc(NC(=O)CSc2nnc(-c3ccco3)o2)no1` the IC50 (Nonstructural protein 1) was 32.4 µM (active).

With `COC(=O)c1ccc(N2C(=O)CC(N(C)Cc3ccccc3)C2=O)cc1` (stereo not drawn) the AC50 [1] was 7.7 µM (active).

With `COc1ccccc1/C=C1\SC(=S)N(NS(=O)(=O)c2ccc(C)cc2)C1=O` the IC50 (Genome polyprotein) was 34.7 µM (active).

In the case of `O=C(Cn1nc(C(=O)O)c2ccccc2c1=O)Nc1ccc2c(c1)C(=O)c1ccccc1C2=O`, the IC50 [2] was 4.02 µM (active).

In the case of `Cc1cc(/C=C(/C#N)c2nc3ccccc3[nH]2)c(C)n1-c1cc(C(=O)O)cc(C(=O)O)c1`, the AC50 [3] was > 20 µM (inactive), the EC50 [4] was 59.3 µM (active) and the IC50 (Leucine aminopeptidase) was 42.6 µM (active). The IC50 [5] was 5.68 µM (active) and the EC50 [6] was 41.4 µM (active).

For `Oc1ccc(CN2CCN(c3ccccc3)CC2)c2cccnc12`, the EC50 (Streptococcus) was 7.49 µM (active), the IC50 (Nonstructural protein 1) was 59.1 µM (active) and the EC50 [7] was 1.86 µM (active). For the same compound, the EC50 [8] was 9.72 µM (active), the EC50 [9] was > 60 µM (not active) and the EC50 [10] was 9.95 µM (active). For the same compound, the EC50 [11] was 5.48 µM (active) and the EC50 [12] was 11.9 µM (active).

With `Cc1cc(C)c(S(=O)(=O)NCC23C=CC(O2)C2C(=O)N(c4ccccc4)C(=O)C23)c(C)c1` (stereo not drawn) the AC50 [1] was 10.1 µM (active).

With `CC(C)(C)OC(=O)N[C@@H](Cc1ccccc1)c1nnc(S(=O)(=O)Cc2ccccc2)o1` the EC50 [13] was 16.9 µM (active) and the EC50 [14] was > 20 µM (not active).

For `O=C1C([N-]S(=O)(=O)c2cccs2)=C([n+]2ccc(CCCc3ccccc3)cc2)C(=O)c2ccccc21`, the EC50 [4] was 119 µM (active), the EC50 [8] was 8.36 µM (active) and the EC50 [10] was > 120 µM (not active). The AC50 (INS1) was 8.75 µM (active), the EC50 [12] was 10.5 µM (active) and the CC50 [15] was 9.69 µM (active). The EC50 [6] was 97 µM (active).

With `CN1c2ccccc2C(C)(C)C12C=Cc1cc(O)ccc1O2` (stereo not drawn) the EC50 [13] was 15.2 µM (active), the EC50 [16] was 18.4 µM (active) and the EC50 [17] was 36.4 µM (active). For the same compound, the EC50 [14] was > 20 µM (not active).

In the case of `Cc1ccc2c(c1)c1ncnc(N3CCc4ccccc4C3)c1n2C`, the EC50 [13] was 11.4 µM (active), the CC50 [15] was > 40 µM (active) and the EC50 [14] was 11.7 µM (active).

For `O=C(O)CN1C(=O)/C(=C\c2cccc(OCc3ccc(F)cc3)c2)SC1=S`, the IC50 (Genome polyprotein) was 42.6 µM (active).

For `O=C1CC2CCCN2C=C1I` (stereo not drawn), the IC50 (Genome polyprotein) was 62.7 µM (active) and the IC50 [5] was 5.48 µM (active).

In the case of `O=C1NC(=O)C(=Cc2ccccc2[N+](=O)[O-])C(=O)N1`, the IC50 (Genome polyprotein) was 27.3 µM (active).

For `Oc1nccc(N/N=C/c2ccccc2O)n1`, the IC50 (Nonstructural protein 1) was 10.3 µM (active), the EC50 [18] was 36.3 µM (active) and the AC50 (INS1) was 0.625 µM (active). For the same compound, the EC50 [19] was 4.11 µM (active).

For `O=C(COC(=O)c1cc(-c2ccco2)nc2ccccc12)NCc1ccc2c(c1)OCO2`, the IC50 [2] was < 0.4 µM (active).
